Results: ChEMBL document CHEMBL1201862, “PubChem BioAssay data set” (2004)
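The compound was tested at five concentrations on cells cultured in 96-well plates, with a 48-hour exposure period. The concentration for 50% growth inhibition is given as GI50.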 The source made the active and inactive calls. Rule as the data show it: active = GI50 up to about 1.1 µM and inactive = higher.

Experiments:
Assay in all cases: inhibition of tumour cell growth, NCI panel, 48 h
HCT-116 = test system: HCT-116
SN12C = test system: SN12C
HL-60 = test system: HL-60
Malme-3M = test system: Malme-3M
A498 = test system: A498
NCI-H460 = test system: NCI-H460
RXF 393 = test system: RXF 393
LOX IMVI = test system: LOX IMVI
SF-268 = test system: SF-268
ACHN = test system: ACHN
SF-539 = test system: SF-539
CAKI-1 = test system: CAKI-1
SW-620 = test system: SW-620
OVCAR-5 = test system: OVCAR-5
KM12 = test system: KM12
OVCAR-4 = test system: OVCAR-4
NCI-H226 = test system: NCI-H226
MDA-MB-231 = test system: MDA-MB-231
NCI-H23 = test system: NCI-H23

Measured: GI50

CN(C)/C=N\c1cc[nH]c(=O)n1
inactive: HCT-116 > 100 µM | SN12C > 100 µM | HL-60 > 100 µM | Malme-3M > 100 µM | A498 > 100 µM | NCI-H460 > 100 µM | RXF 393 > 100 µM | LOX IMVI > 100 µM | SF-268 > 100 µM | ACHN > 100 µM | SF-539 > 100 µM | CAKI-1 > 100 µM | SW-620 > 100 µM | OVCAR-5 > 100 µM | KM12 > 100 µM | OVCAR-4 > 100 µM | NCI-H226 > 100 µM

NS(=O)(=O)c1cc(S(N)(=O)=O)c(NC(=O)Nc2ccc(Cl)c(Cl)c2)c(Cl)c1Cl
inactive: HCT-116 > 100 µM | SN12C > 100 µM | NCI-H460 > 100 µM | LOX IMVI > 100 µM | SF-268 > 100 µM | ACHN > 100 µM | CAKI-1 > 100 µM | SW-620 > 100 µM | OVCAR-5 > 100 µM | KM12 > 100 µM | MDA-MB-231 > 100 µM | OVCAR-4 > 100 µM | NCI-H23 > 100 µM | NCI-H226 96.2 µM

O=C(Nc1ccc(Cl)cc1)/C(Cc1cccc[n+]1[O-])=N\Nc1ccc([N+](=O)[O-])cc1[N+](=O)[O-]
inactive: HCT-116 > 100 µM | SN12C > 100 µM | HL-60 > 100 µM | Malme-3M > 100 µM | A498 > 100 µM | NCI-H460 > 100 µM | RXF 393 > 100 µM | LOX IMVI > 100 µM | SF-268 > 100 µM | ACHN > 100 µM | SF-539 > 100 µM | CAKI-1 > 100 µM | SW-620 > 100 µM | OVCAR-5 > 100 µM | KM12 > 100 µM | OVCAR-4 > 100 µM | NCI-H23 > 100 µM

C=CC1(CC)/C(=N\O)C(CC)(CC)C(=O)N1O (stereo not drawn)
inactive: HCT-116 > 100 µM | SN12C > 100 µM | HL-60 > 100 µM | Malme-3M > 100 µM | A498 > 100 µM | NCI-H460 > 100 µM | RXF 393 > 100 µM | LOX IMVI > 100 µM | ACHN > 100 µM | SF-539 > 100 µM | CAKI-1 > 100 µM | SW-620 > 100 µM | OVCAR-5 > 100 µM | KM12 > 100 µM | OVCAR-4 > 100 µM | NCI-H23 > 100 µM | NCI-H226 > 100 µM

N#Cc1cc([N+](=O)[O-])ccc1NC(=O)/C(=N/N)C(C(=O)c1ccc(Cl)c(Cl)c1)C1OC(=O)c2ccccc21 (stereo not drawn)
inactive: HCT-116 39.1 µM | SN12C 90.8 µM | Malme-3M > 100 µM | A498 29.4 µM | NCI-H460 35.8 µM | RXF 393 19.5 µM | LOX IMVI 21.7 µM | SF-268 59.8 µM | ACHN 36.6 µM | SF-539 67.5 µM | CAKI-1 38.1 µM | SW-620 95.7 µM | OVCAR-5 47.2 µM | KM12 58.1 µM | OVCAR-4 30.8 µM | NCI-H23 25.1 µM | NCI-H226 16.3 µM

Cc1ccc(/N=N/C2S/C(=C(\C#N)c3nc4ccccc4[nH]3)N(c3ccccc3)C2=O)cc1 (stereo not drawn)
inactive: HCT-116 90.2 µM | SN12C > 100 µM | HL-60 > 100 µM | Malme-3M > 100 µM | A498 > 100 µM | NCI-H460 > 100 µM | RXF 393 28.8 µM | LOX IMVI 19.9 µM | SF-268 > 100 µM | ACHN 34.1 µM | SF-539 43.6 µM | CAKI-1 67.1 µM | SW-620 > 100 µM | OVCAR-5 85.1 µM | OVCAR-4 42.8 µM | NCI-H23 86.7 µM | NCI-H226 > 100 µM

CN(C)c1ccc(/C=N/C23CC4CC(CC(C4)C2)C3)cc1
inactive: HCT-116 > 100 µM | SN12C > 100 µM | HL-60 > 100 µM | Malme-3M > 100 µM | A498 > 100 µM | NCI-H460 > 100 µM | RXF 393 > 100 µM | LOX IMVI > 100 µM | SF-268 > 100 µM | ACHN > 100 µM | SF-539 > 100 µM | CAKI-1 > 100 µM | SW-620 > 100 µM | OVCAR-5 > 100 µM | KM12 > 100 µM | OVCAR-4 > 100 µM | NCI-H23 > 100 µM | NCI-H226 > 100 µM

Cc1ccc(NC(=O)/C(=N/NC(=O)C[N+](C)(C)C)c2nc3ccccc3nc2O)cc1
inactive: HCT-116 > 100 µM | SN12C > 100 µM | Malme-3M > 100 µM | A498 > 100 µM | NCI-H460 > 100 µM | RXF 393 > 100 µM | LOX IMVI 51.4 µM | SF-268 > 100 µM | ACHN > 100 µM | SF-539 > 100 µM | CAKI-1 > 100 µM | SW-620 15.7 µM | OVCAR-5 > 100 µM | OVCAR-4 > 100 µM | NCI-H23 > 100 µM | NCI-H226 > 100 µM

CC(=O)n1c2ccc(Br)cc2c2nc3ccccc3nc21
inactive: HCT-116 > 100 µM | SN12C > 100 µM | HL-60 > 100 µM | Malme-3M > 100 µM | NCI-H460 > 100 µM | RXF 393 > 100 µM | LOX IMVI > 100 µM | SF-268 > 100 µM | ACHN > 100 µM | SF-539 > 100 µM | CAKI-1 > 100 µM | SW-620 > 100 µM | OVCAR-5 > 100 µM | KM12 > 100 µM | MDA-MB-231 > 100 µM | OVCAR-4 75.3 µM | NCI-H23 > 100 µM | NCI-H226 > 100 µM

CS(=O)(=O)c1ccc(-c2cc(-c3ccc(S(C)(=O)=O)cc3)[n+](-c3cc(-c4ccccc4)c([O-])c(-c4ccccc4)c3)c(-c3ccc(S(C)(=O)=O)cc3)c2)cc1
inactive: HCT-116 > 100 µM | SN12C > 100 µM | Malme-3M > 100 µM | A498 44.7 µM | NCI-H460 > 100 µM | RXF 393 > 100 µM | LOX IMVI > 100 µM | SF-268 > 100 µM | ACHN > 100 µM | SF-539 > 100 µM | CAKI-1 > 100 µM | SW-620 > 100 µM | OVCAR-5 > 100 µM | KM12 > 100 µM | OVCAR-4 > 100 µM | NCI-H23 > 100 µM | NCI-H226 > 100 µM

Cc1c(-c2nnc(-c3ccccc3)o2)c(=O)n(-c2ccccc2)n1C
inactive: HCT-116 > 100 µM | SN12C > 100 µM | HL-60 > 100 µM | Malme-3M > 100 µM | A498 > 100 µM | NCI-H460 > 100 µM | RXF 393 > 100 µM | LOX IMVI > 100 µM | SF-268 > 100 µM | ACHN > 100 µM | SF-539 > 100 µM | SW-620 > 100 µM | KM12 > 100 µM | OVCAR-4 > 100 µM | NCI-H23 > 100 µM | NCI-H226 > 100 µM

CC(=O)OCC1OC(Sc2ccccn2)C=CC1OC(C)=O (stereo not drawn)
inactive: HCT-116 > 100 µM | SN12C > 100 µM | HL-60 > 100 µM | Malme-3M > 100 µM | A498 > 100 µM | RXF 393 > 100 µM | LOX IMVI > 100 µM | SF-268 > 100 µM | ACHN > 100 µM | SF-539 > 100 µM | SW-620 > 100 µM | OVCAR-5 > 100 µM | KM12 > 100 µM | OVCAR-4 > 100 µM | NCI-H23 > 100 µM | NCI-H226 > 100 µM

Cc1cn(C2OC(CO[Si](C)(C)C(C)(C)C)C(N(C)O[Si](C)(C)C(C)(C)C)C2[Se]c2ccccc2)c(=O)[nH]c1=O (stereo not drawn)
inactive: HCT-116 3.56 µM | SN12C 5.65 µM | HL-60 > 100 µM | Malme-3M 11.6 µM | A498 14.9 µM | LOX IMVI 2.94 µM | SF-268 2.75 µM | ACHN 3.92 µM | SW-620 3.48 µM | OVCAR-5 2.82 µM | KM12 3.66 µM | MDA-MB-231 6.27 µM | OVCAR-4 2.87 µM | NCI-H23 4.6 µM | NCI-H226 3.95 µM

Cc1ccc(NC(=O)CC2C(=O)Nc3ccccc3S2(=O)=O)cc1C (stereo not drawn)
inactive: HCT-116 > 100 µM | SN12C > 100 µM | HL-60 > 100 µM | Malme-3M > 100 µM | A498 > 100 µM | NCI-H460 > 100 µM | RXF 393 > 100 µM | LOX IMVI > 100 µM | SF-268 > 10 µM | ACHN > 100 µM | SF-539 > 100 µM | CAKI-1 > 100 µM | SW-620 > 100 µM | OVCAR-5 > 100 µM | OVCAR-4 > 100 µM | NCI-H23 > 100 µM | NCI-H226 > 100 µM

CC(=O)O[C@@H]1C=C(C)[C@H](CBr)O[C@@]2(C)CC[C@H](Br)C(C)(C)[C@H]12
inactive: HCT-116 > 100 µM | SN12C > 100 µM | HL-60 91.2 µM | A498 > 100 µM | NCI-H460 > 100 µM | RXF 393 > 100 µM | LOX IMVI > 100 µM | SF-268 > 100 µM | ACHN > 100 µM | SF-539 > 100 µM | CAKI-1 > 100 µM | SW-620 > 100 µM | OVCAR-5 > 100 µM | KM12 > 100 µM | MDA-MB-231 > 100 µM | OVCAR-4 > 100 µM | NCI-H23 > 100 µM | NCI-H226 > 100 µM

CN1C(c2ccccc2)CC(O)CC1c1ccccc1 (stereo not drawn)
inactive: HCT-116 > 100 µM | SN12C > 100 µM | HL-60 > 100 µM | Malme-3M > 100 µM | A498 > 100 µM | NCI-H460 > 100 µM | RXF 393 > 100 µM | LOX IMVI > 100 µM | SF-268 > 100 µM | ACHN > 100 µM | SF-539 > 100 µM | CAKI-1 > 100 µM | SW-620 > 100 µM | OVCAR-5 > 100 µM | KM12 > 100 µM | OVCAR-4 > 100 µM | NCI-H23 > 100 µM | NCI-H226 > 100 µM
